Experiment: Cell growth on CLC versus other substrates (FIG. 13)
Format: cell-based
Conditions: CLC compared to PDMS, agarose or cholesteryl oleyl carbonate substrates
Method: Varying ratio of mesogen were weighted to generate a scaffold with desirable phase transition. The mesogens were heated to the melt phase of about 80° C. and then pipetted onto surfaces to create CLC-coated substrates. The substrates were then placed in well plates cell culture media and cells were added to the substrates using traditional cell seeding techniques. The scaffold directed cellular organization once the scaffold was placed in the cell culture incubator with seeded cells on the surface.

CCCCCCCC/C=C\CCCCCCCCOC(=O)O[C@H]1CC[C@@]2(C)C(=CC[C@H]3[C@@H]4CC[C@H]([C@H](C)CCCC(C)C)[C@@]4(C)CC[C@@H]32)C1 [cholesteryl oleyl carbonate]
cell growth on substrate: cell growth was only observed on CLC substrate
